Measured values taken from patent US20040034104A1, “2,2-Diphenylbutanamide derivatives and medicines containing the same” (priority 2000, published 2004).

Tested on: not given
Experiment: not given
Settings: not given
`CN(C)C(=O)C(CCN1CCC(c2ccccc2OCC(=O)O)CC1)(c1ccccc1)c1ccccc1` gave a melting point of 202 °C. `CCOC(=O)COc1ccccc1C1=CCN(CCC(C(=O)N(C)C)(c2ccccc2)c2ccccc2)CC1` gave a melting point of 147 °C. `CN(C)C(=O)C(CCN1CC=C(c2ccccc2OCC(=O)O)CC1)(c1ccccc1)c1ccccc1` gave a melting point of 135 °C. For `O=C(O)COc1ccccc1C1CCN(CCC(C(=O)N2CCCC2)(c2ccccc2)c2ccccc2)CC1`, the melting point was 239 °C. `CN(C)C(=O)C(CCN1CCC(c2ccccc2OC(C)(C)C(=O)O)CC1)(c1ccccc1)c1ccccc1` gave a melting point of 156 to 158 °C.

Tested on: opioid receptor (μ-opioid)
Experiment: Opioid receptor agonist activity in guinea pig ileum longitudinal muscle specimens
Settings: agonist activity relative to DAMGO (=1.0); ileum longitudinal muscle specimens with Auerbach's plexus; method of Oka et al.
Experimental: Hartley male guinea pigs (body weight: about 500 g) wer employed. The ileum (15-30 cm) was removed from the ileocecum of each guinea pig, to thereby prepare longitudinal muscle specimens having Auerbach's plexus. Opioid receptor activity of the test drugs was measured through a method proposed by Oka et al. (Eur. J. Pharmacol., 77; 137-141, 1982). Agonist activity is represented by the efficacy relative to the activity of DAMGO ([D-Ala^2, N-MePhe^4, Gly^5-ol]-enkephalin), which is a selective μ-opioid agonist.
With `CN(C)C(=O)C(CCN1CCN(c2ccccc2O)CC1)(c1ccccc1)c1ccccc1` [Compound No. 36, 4-[4-(2-Hydroxyphenyl)piperazin-1-yl]-N,N-dimethyl-2,2-diphenylbutanamide] the Relative potency was 10. For `CN(C)C(=O)C(CCN1CCN(c2ccccc2OCCO)CC1)(c1ccccc1)c1ccccc1` [Compound No. 43, 4-[4-[2-(2-hydroxyethoxy)phenyl]piperazin-1-yl]-N,N-dimethyl-2,2-diphenylbutanamide], the Relative potency was 20. Work on `CN(C)C(=O)C(CCN1CCC(c2ccccc2OCCO)CC1)(c1ccccc1)c1ccccc1` [Compound No. 69, 4-[4-[2-(2-hydroxyethoxy)phenyl]piperidin-1-yl]-N,N-dimethyl-2,2-diphenylbutanamide] yielded a Relative potency of 10. Work on `C[C@@H](NC(=O)[C@@H](N)Cc1ccc(O)cc1)C(=O)NCC(=O)N(C)[C@@H](Cc1ccccc1)C(=O)NCCO` [DAMGO, [D-Ala^2, N-MePhe^4, Gly^5-ol]-enkephalin, reference compound] yielded a Relative potency of 1.0. In the case of `CN(C)C(=O)C(CCN1CCN(c2ccccc2OCC(=O)O)CC1)(c1ccccc1)c1ccccc1` [compound 45], the Relative potency is reported as 20.
